Results on 9 compounds are retold here after ChEMBL document CHEMBL6153029, “Next-generation cancer therapeutics: PROTACs and the role of heterocyclic warheads in targeting resistance” (Eur J Med Chem, 2025).

For one experiment, the system named is HCT-116. Briefly: Antiproliferative activity against human HCT-116 cells assessed as reduction in cell viability incubated for 72 hrs by CCK-8 assay. In kind it is functional, cell-based. Particulars: HCT-116, 72 h.
The next experiment relates to Calu-6. Briefly: Antiproliferative activity against human Calu-6 cells assessed as reduction in cell viability incubated for 72 hrs by CCK-8 assay. In kind it is functional, cell-based. Particulars: Calu-6, 72 h.
In another experiment the test system is A-375. The experiment can be described thus: Antiproliferative activity against human A-375 cells assessed as reduction in cell viability incubated for 72 hrs by CCK-8 assay. In kind it is functional, cell-based. Particulars: A-375, 72 h.
For experiment [1], the target named is T1, Protein cereblon/Mitogen-activated protein kinase 3/Mitogen-activated protein kinase 1 (Homo sapiens, UniProt P27361+P28482+Q96SW2). Briefly: PROTAC activity at CRBN/ERK1/2 in human Calu-6 cells assessed as induction of ERK1/2 degradation incubated for 48 hrs by Western blot analysis. The class given is cell-based.
T1 sequence (P27361 whole entry): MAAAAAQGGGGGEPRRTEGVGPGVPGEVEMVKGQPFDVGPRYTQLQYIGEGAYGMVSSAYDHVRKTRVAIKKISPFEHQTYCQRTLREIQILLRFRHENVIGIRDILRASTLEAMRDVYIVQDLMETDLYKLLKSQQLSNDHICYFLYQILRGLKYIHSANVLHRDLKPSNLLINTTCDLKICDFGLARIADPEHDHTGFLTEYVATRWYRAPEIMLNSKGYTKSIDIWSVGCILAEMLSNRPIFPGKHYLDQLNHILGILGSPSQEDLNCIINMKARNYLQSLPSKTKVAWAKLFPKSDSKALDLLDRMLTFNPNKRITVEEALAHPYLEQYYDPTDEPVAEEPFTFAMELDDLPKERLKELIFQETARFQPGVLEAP
T1 sequence (P28482 whole entry): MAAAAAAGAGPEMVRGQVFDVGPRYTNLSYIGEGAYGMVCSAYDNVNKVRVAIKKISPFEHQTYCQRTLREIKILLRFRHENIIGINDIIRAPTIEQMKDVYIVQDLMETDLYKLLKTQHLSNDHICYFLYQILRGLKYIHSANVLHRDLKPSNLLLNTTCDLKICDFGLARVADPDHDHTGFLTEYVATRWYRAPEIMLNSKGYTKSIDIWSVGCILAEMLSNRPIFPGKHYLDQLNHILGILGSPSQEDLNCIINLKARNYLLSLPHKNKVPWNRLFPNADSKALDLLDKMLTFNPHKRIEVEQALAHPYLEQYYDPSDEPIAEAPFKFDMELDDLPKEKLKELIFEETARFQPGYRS
T1 sequence (Q96SW2 whole entry): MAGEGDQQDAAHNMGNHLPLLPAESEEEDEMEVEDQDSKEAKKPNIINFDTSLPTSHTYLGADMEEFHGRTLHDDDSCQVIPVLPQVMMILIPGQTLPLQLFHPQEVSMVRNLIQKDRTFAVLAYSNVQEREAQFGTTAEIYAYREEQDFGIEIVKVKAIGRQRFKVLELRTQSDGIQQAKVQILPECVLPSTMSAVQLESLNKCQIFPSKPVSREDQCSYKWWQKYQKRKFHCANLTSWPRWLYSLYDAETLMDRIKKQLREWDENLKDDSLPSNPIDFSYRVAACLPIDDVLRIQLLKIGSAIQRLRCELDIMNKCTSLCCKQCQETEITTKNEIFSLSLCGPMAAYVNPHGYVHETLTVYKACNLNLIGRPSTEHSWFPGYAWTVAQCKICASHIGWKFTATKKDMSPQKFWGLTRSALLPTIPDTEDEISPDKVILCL
Experiment [2] concerns the target T1, Protein cereblon/Mitogen-activated protein kinase 3/Mitogen-activated protein kinase 1. Briefly: PROTAC activity at CRBN/ERK1/2 in human HCT-116 cells assessed as induction of ERK1/2 degradation incubated for 48 hrs by Western blot analysis. In kind it is cell-based.
A short description of experiment [3]: PROTAC activity at VHL/human p38alpha in MDA-MB-231 cells assessed as p38alpha degradation. In kind it is cell-based.
Experiment [4] addresses Protein cereblon/Tyrosine-protein kinase BTK (Homo sapiens, UniProt Q06187+Q96SW2). Briefly: PROTAC activity at BTK/CRBN in human MINO cells assessed as BTK protein degradation at 20 nM measured after 2 hrs by Western blotting analysis. In kind it is cell-based.
The target in experiment [5] is Mitogen-activated protein kinase kinase kinase kinase 1 (Homo sapiens, UniProt Q92918). Briefly: Inhibition of HPK1 (unknown origin).
Mitogen-activated protein kinase kinase kinase kinase 1, sequence (Q92918 whole entry): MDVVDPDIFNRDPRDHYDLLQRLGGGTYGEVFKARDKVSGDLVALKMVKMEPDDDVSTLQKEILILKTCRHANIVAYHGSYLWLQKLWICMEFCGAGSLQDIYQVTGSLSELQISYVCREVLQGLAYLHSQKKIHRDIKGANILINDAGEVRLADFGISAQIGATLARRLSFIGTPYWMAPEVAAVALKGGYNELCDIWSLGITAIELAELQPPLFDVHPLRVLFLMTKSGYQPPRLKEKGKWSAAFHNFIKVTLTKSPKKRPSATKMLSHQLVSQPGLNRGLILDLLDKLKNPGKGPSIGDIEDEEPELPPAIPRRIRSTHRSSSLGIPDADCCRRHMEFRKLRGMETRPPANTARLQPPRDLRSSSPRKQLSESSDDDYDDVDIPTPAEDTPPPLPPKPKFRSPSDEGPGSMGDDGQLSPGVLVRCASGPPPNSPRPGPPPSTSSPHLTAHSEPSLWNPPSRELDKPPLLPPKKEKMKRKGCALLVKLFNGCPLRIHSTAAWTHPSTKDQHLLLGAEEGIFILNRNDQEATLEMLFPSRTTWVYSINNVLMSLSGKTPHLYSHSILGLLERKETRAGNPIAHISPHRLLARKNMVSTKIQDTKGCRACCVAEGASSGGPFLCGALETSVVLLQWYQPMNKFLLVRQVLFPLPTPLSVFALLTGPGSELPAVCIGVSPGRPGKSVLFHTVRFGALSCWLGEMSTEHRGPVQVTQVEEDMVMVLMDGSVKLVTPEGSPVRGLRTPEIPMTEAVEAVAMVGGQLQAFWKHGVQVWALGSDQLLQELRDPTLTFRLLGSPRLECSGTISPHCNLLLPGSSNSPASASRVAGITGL
Experiment [6] addresses Platelet-derived growth factor receptor beta (Homo sapiens) (UniProt P09619). Briefly: Inhibition of PDGFRbeta (unknown origin) measured for 48 hrs at 10 uM relative to control.
A short description of experiment [7]: Upregulation of p53 protein expression in human A549 cells at 3.33 uM relative to control. In kind it is functional.
Another experiment relates to A549. The experiment can be described thus: Antiproliferative activity against human A549 cells. In kind it is functional, cell-based.
Experiment [8] is described as follows: Downregulation of MDM2 protein expression in human A549 cells at 1.11 uM relative to control. The class given is functional.
Experiment [9] in a line: Downregulation of MDM2 protein expression in human A549 cells at 3.33 uM relative to control. The class given is functional.
Experiment [10] in a line: Downregulation of MDM2 protein expression in human A549 cells at 10 uM relative to control. In kind it is functional.
A short description of experiment [11]: Upregulation of p53 protein expression in human A549 cells at 1.11 uM relative to control. In kind it is functional.
Experiment [12] can be described thus: Upregulation of p53 protein expression in human A549 cells at 10 uM relative to control. In kind it is functional.
Experiment [13] deals with T2, Protein cereblon/ALK tyrosine kinase receptor/Nucleophosmin (Homo sapiens, UniProt Q9UM73+P06748+Q96SW2). Briefly: PROTAC activity at CRBN/NPM/ALK in human KARPAS-299 cells incubated for 48 hrs by Western blotting analysis. In kind it is cell-based.
Experiment [14] concerns the target T2, Protein cereblon/ALK tyrosine kinase receptor/Nucleophosmin. The experiment can be described thus: PROTAC activity at CRBN/NPM/ALK in human KARPAS-299 cells assessed as maximal degradation of protein at 1 uM incubated for 48 hrs by Western blotting analysis relative to control. The class given is cell-based.
The target of experiment [15] is T3, Glucose-induced degradation protein 4 homolog/EML4-ALK (Homo sapiens, UniProt Q9UM73+Q9HC35+Q8IVV7). Briefly: PROTAC activity at GID4/EML4-ALK in human NCI-H3122 cells assessed as protein degradation at 1 uM measured for 48 hrs by immunoblot analysis. The class given is cell-based.
Experiment [16] deals with T3, Glucose-induced degradation protein 4 homolog/EML4-ALK. The experiment can be described thus: PROTAC activity at GID4/EML4-ALK in human NCI-H3122 cells assessed as maximal protein degradation at 1 uM measured for 48 hrs by immunoblot analysis relative to control. In kind it is cell-based.
Target sequence in this assay (Q8IVV7 whole entry partner): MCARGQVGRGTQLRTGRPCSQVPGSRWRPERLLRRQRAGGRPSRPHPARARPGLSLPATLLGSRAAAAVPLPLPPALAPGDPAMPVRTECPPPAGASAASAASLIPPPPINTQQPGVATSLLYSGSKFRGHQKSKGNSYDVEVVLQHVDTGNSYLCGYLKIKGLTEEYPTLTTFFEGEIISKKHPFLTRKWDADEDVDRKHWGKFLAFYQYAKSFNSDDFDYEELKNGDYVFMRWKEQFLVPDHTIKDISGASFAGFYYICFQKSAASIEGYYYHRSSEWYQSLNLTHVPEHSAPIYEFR
Target sequence in this assay (Q9HC35 whole entry partner): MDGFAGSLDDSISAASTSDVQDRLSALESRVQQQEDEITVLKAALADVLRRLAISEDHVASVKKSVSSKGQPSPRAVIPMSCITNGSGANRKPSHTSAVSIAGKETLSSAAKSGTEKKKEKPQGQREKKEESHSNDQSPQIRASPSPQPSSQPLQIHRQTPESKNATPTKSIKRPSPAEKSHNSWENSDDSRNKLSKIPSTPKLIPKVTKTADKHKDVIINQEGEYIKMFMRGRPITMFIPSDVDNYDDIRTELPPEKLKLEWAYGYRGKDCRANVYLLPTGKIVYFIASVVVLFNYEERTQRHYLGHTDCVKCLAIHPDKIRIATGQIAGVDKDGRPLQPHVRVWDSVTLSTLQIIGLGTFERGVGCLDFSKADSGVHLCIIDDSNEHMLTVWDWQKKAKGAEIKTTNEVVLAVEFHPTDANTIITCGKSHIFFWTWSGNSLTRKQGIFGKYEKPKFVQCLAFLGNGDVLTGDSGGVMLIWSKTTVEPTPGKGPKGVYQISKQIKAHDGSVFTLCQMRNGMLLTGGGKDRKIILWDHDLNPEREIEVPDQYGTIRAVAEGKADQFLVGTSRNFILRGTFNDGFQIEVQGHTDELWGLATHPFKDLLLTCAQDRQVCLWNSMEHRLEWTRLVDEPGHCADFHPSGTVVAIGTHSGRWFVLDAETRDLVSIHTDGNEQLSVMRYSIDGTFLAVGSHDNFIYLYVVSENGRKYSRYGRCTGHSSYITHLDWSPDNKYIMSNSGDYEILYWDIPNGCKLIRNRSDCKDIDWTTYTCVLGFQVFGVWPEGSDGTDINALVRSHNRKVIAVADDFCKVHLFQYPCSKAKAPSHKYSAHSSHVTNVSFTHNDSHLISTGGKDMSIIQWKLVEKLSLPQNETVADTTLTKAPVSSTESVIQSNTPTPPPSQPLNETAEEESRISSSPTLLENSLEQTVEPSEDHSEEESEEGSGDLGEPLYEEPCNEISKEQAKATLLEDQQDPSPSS
Target sequence in this assay (Q9UM73 19-1620 limits assumed): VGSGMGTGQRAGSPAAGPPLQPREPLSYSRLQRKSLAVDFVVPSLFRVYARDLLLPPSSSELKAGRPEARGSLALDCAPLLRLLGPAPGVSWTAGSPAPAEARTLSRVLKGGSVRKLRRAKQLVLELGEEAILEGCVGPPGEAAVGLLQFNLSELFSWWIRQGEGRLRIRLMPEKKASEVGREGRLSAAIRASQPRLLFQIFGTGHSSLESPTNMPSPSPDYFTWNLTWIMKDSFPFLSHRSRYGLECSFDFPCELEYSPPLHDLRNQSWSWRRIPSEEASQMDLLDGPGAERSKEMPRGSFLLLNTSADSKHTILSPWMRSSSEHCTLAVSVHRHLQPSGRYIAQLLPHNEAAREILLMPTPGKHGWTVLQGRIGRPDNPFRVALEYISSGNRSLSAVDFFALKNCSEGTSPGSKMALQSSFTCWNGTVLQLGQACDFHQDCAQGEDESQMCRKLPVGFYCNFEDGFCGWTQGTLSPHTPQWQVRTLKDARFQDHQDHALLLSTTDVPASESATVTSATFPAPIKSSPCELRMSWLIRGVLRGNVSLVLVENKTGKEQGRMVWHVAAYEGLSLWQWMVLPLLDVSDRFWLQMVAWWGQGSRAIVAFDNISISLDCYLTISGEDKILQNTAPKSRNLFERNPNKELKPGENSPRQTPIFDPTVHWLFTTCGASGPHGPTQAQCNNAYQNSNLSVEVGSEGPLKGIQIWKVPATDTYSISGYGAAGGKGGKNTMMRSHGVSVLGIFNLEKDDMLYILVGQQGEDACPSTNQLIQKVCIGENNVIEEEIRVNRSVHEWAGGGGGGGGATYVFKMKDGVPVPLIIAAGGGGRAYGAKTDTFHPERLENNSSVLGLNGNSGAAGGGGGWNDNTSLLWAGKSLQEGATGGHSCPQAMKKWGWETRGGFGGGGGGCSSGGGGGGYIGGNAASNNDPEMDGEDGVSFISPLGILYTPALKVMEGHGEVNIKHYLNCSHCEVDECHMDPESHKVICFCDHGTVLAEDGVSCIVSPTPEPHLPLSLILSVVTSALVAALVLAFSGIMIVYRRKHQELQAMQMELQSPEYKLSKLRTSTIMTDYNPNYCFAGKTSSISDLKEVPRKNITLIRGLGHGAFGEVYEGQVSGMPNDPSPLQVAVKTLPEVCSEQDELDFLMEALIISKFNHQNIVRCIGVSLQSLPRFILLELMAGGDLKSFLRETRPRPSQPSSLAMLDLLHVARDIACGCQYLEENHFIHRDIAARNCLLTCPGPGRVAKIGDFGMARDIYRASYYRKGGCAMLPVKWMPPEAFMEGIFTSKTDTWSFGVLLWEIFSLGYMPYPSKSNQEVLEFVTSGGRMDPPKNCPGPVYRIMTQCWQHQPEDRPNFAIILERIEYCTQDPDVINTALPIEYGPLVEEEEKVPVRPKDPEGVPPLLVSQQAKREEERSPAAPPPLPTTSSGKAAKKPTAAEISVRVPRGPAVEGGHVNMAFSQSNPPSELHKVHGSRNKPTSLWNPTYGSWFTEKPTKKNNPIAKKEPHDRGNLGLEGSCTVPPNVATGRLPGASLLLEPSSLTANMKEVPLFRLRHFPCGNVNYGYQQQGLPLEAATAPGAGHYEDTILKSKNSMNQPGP
Experiment [17] addresses Protein cereblon/Androgen receptor (Homo sapiens) (UniProt P10275+Q96SW2). Briefly: PROTAC activity at AR/CRBN in human LNCaP cells assessed as protein degradation measured by measuring maximal degradation at 5 uM incubated for 24 hrs by Western blot analysis relative to control. The class given is cell-based.
A further experiment concerns LNCaP. The experiment can be described thus: Antiproliferative activity against human LNCAP cells assessed as reduction in cell viability incubated for 24 hrs by MTT assay. In kind it is functional, cell-based.
The next experiment concerns MCF7. The experiment can be described thus: Antiproliferative activity against human MCF7 cells.
Another experiment concerns T47D. The experiment can be described thus: Antiproliferative activity against human T47D cells.

In the case of `Cc1cccc(CN2C(=O)c3cc(-c4nc(Nc5ccnc(C#CCCN(C)C)c5)ncc4C)cn3C[C@H]2C)n1`, the results for the IC50 in the experiment with HCT-116, with Calu-6 and in the experiment on A-375 were 2.1 µM, 15.9 µM and over 30 µM, respectively. For the same compound, the DC50 in [1] was 0.085 µM; in [2], 0.102 µM.
As for `Cc1ccc(C(=O)NCCCc2cn(CCCC(=O)NCCCCCC(=O)N[C@H](C(=O)N3C[C@H](O)C[C@H]3C(=O)N[C@@H](C)c3ccc(-c4scnc4C)cc3)C(C)(C)C)nn2)cc1-n1c(C)cc(OCc2ccc(F)cc2F)c(Br)c1=O`, the DC50 in experiment [3] stood at 0.0116 µM.
Turning to `Nc1ncnc2c1c(-c1ccc(Oc3ccccc3)cc1)nn2[C@@H]1CCCN(C(=O)CCCCCNc2ccc3c(c2)C(=O)N(C2CCC(=O)NC2=O)C3)C1` (some centres undefined), the DC50 in [4] was 0.0038 µM.
Turning to `COc1ccc(-c2c[nH]c3ccc(-c4ccc(N5CCN(C(=O)CCCCCNc6cccc7c6C(=O)N(C6CCC(=O)NC6=O)C7=O)CC5)cc4)cc23)cc1OC` (centres undefined), half-maximal inhibition in experiment [5] (IC50) required 0.614 µM.
In turn, `Cc1ncsc1-c1ccc(CNC(=O)[C@@H]2C[C@@H](O)CN2C(=O)[C@@H](NCCCCNC(=O)CNC(=O)c2cc(Oc3ccc(NC(=O)Nc4ccc(Cl)c(C(F)(F)F)c4)cc3)ccn2)C(C)(C)C)cc1` showed an inhibition in experiment [6] of over 70%.
In the case of `COC(C)(C)CCC[C@@](C)(O)[C@H]1CC[C@]2(C)[C@@H]1[C@H](O)C[C@@H]1[C@@]3(C)CC[C@H](OCC(=O)N4CCN(CC5CCN(c6ccc7c(c6)CN(C6CCC(=O)NC6=O)C7=O)CC5)CC4)C(C)(C)[C@@H]3CC[C@]12C` (some centres undefined), the Activity in [7] is 138.01%; in experiment [8], 33.78%; in experiment [9], 49.53%; in experiment [10], 65.39%; in experiment [11] it was 133.45%; in [12], 147.15%. The compound also gave an IC50 with A549 of 2.16 µM.
Take `COc1cc(N2CCN(C(=O)CNc3cccc4c3C(=O)N(C3CCC(=O)NC3=O)C4=O)CC2)ccc1Nc1ncc(Cl)c(Nc2ccccc2S(=O)(=O)C(C)C)n1` (centres undefined): the DC50 in [13] was found to be 0.0046 µM; in [15] it was 0.358 µM. The Emax in experiment [14] is 92.3%; in experiment [16] it was 81.3%.
On to `CC1(C)C(=O)N(c2ccc(C#N)c(C(F)(F)F)c2)C(=S)N1CCCCCCCCC(=O)N1CCN(CCCCCCCCCCCCC(=O)NC23CC4CC(CC(C4)C2)C3)CC1`, for which the Emax in [17] is 57%. The IC50 in the experiment with LNCaP came to 4.77 µM.
`Nc1nc(NC2CCC(C#Cc3ccc(C(=O)Nc4ccc5c(c4)CN(C4CCC(=O)NC4=O)C5=O)cc3)CC2)sc1C(=O)c1ccccc1[N+](=O)[O-]` (centres undefined): the IC50 in the experiment with MCF7 was found to be 0.0289 µM; in the experiment on T47D, 0.0417 µM.
